# Laboratory results taken from PMC5038266 (Antimicrobial Agents and Chemotherapy, 2016).
# “Also recorded” adds a separate entry of the source. Like-named read-outs stand apart in the source and are kept apart here.
# Tests used:
# [1] = Study 2: multiple-dose drug-drug interaction pharmacokinetics, delamanid with tenofovir or Kaletra (lopinavir/ritonavir); details: for Equivalence outcome for steady-state exposure of coadministered drug: coadministered with delamanid
# [2] = Study 1: multiple-dose drug-drug interaction pharmacokinetics, delamanid with ethambutol plus Rifater; details: for AUC / Cmax: human, plasma, po, ethambutol 1100 mg + Rifater once daily, mean ± SD; for AUC: AUCτ of coadministered drug; for Cmax: Cmax of coadministered drug
# [3] = clinical; details: human, in vivo, po; for Tmax: Delamanid Tmax
# [4] = clinical; details: human, in vivo, po; for AUC: Delamanid AUCτ
# [5] = Study 3 safety assessments (adverse events); format: in vivo, human (healthy subjects); details: efavirenz alone, delamanid alone, and delamanid plus efavirenz
# [6] = Study 3: multiple-dose drug-drug interaction pharmacokinetics, delamanid with efavirenz; details: for Cmax / AUC: human, po; for AUC: Delamanid AUCτ
# [7] = Study 1; multiple once-daily oral doses of 200 mg delamanid alone and in combination with ethambutol and rifampin/isoniazid/pyrazinamide
# [8] = Study 2 safety assessments (adverse events); format: in vivo, human (healthy subjects); details: combinations of delamanid with either tenofovir or lopinavir and ritonavir
# [9] = in vivo
# [10] = test system: CYP enzymes; set-up: method as in PMID 17132069; details: cited from earlier work
# [11] = human, in vivo
# [12] = test system: MDR-TB; details: cited from earlier work
# [13] = with DLM, day 15, with delamanid 200 mg once daily
# [14] = without DLM, day 15, without delamanid
# [15] = Cmax of coadministered drug, with DLM
# [16] = ethambutol-Rifater plus delamanid versus ethambutol-Rifater alone
# [17] = delamanid plus optimized background regimen for ≤2 months
compound,measurement,setting,value
Cc1cccc(C)c1OCC(=O)N[C@@H](Cc1ccccc1)[C@@H](O)C[C@H](Cc1ccccc1)NC(=O)[C@H](C(C)C)N1CCCNC1=O [Lopinavir],Effect of delamanid on exposure of coadministered drug,[1],not affected
same,Equivalence outcome for steady-state exposure of coadministered drug,[1],equivalence was documented
same,"Cmax of coadministered drug, without DLM","[1]; tenofovir 300 mg once daily or lopinavir 400 mg/ritonavir 100 mg twice daily, day 14, without delamanid, mean ± SD",12.9 ± 3.17 (11) μg/ml
NNC(=O)c1ccncc1 [Isoniazid],Isoniazid concentrations in slow acetylators versus intermediate/rapid acetylators (NAT2 genotype),[2],~2 fold
same,AUC,[2]; [13],12100 ± 6900 ng·h/mL
same,Cmax,[2]; [13],4620 ± 980 ng/mL
same,AUC,"[3]; AUCτ of coadministered drug, without DLM, Study 1, ethambutol 1100 mg + Rifater once daily, day 15, without delamanid, mean ± SD",20000 ± 8000 ng·h/mL
C[C@]1(COc2ccc(N3CCC(Oc4ccc(OC(F)(F)F)cc4)CC3)cc2)CN=C(N)O1 [DM-6705],Lower metabolite AUCτ when delamanid coadministered with ethambutol-Rifater,"[2]; based on the AUC, versus delamanid alone",30 to 50%
same,Higher exposure on coadministration of lopinavir/ritonavir (Kaletra) with delamanid,"[1]; delamanid and metabolites, unpublished results for metabolites",approximately 25%
NC(=O)c1cnccn1 [Pyrazinamide],AUC,[2]; [13],533000 ± 141000 ng·h/mL
same,AUC,[2]; [14],488000 ± 90300 ng·h/mL
same,Cmax,[2]; [13],51400 ± 9060 ng/mL
same,Cmax,"[3]; Cmax of coadministered drug, without DLM",49700 ng/mL
C[C@H](Cn1cnc2c(N)ncnc21)OCP(=O)(O)O [Tenofovir],Effect of delamanid on exposure of coadministered drug,[1],not affected
same,Equivalence outcome for steady-state exposure of coadministered drug,[1],suggested
same,"AUCτ of coadministered drug, with DLM","[1]; tenofovir 300 mg once daily or lopinavir 400 mg/ritonavir 100 mg twice daily, day 14, with delamanid 100 mg twice daily, mean ± SD",2.850 ± 0.644 (13) h·µg/ml
same,Cmax,[4]; [15],294 ng/mL
CC[C@@H](CO)NCCN[C@@H](CC)CO [Ethambutol],Higher AUCτ with delamanid coadministration,[2]; [16],approximately 25%
same,Higher Cmax with delamanid coadministration,[2]; [16],approximately 25%
same,AUC,[2]; [13],22400 ± 4770 ng·h/mL
same,AUC,[2]; [14],18200 ± 3210 ng·h/mL
same,Cmax,[2]; [13],4450 ± 820 ng/mL
CO[C@H]1/C=C/O[C@@]2(C)Oc3c(C)c(O)c4c(O)c(c(/C=N/N5CCN(C)CC5)c(O)c4c3C2=O)NC(=O)/C(C)=C\C=C\[C@H](C)[C@H](O)[C@@H](C)[C@@H](O)[C@@H](C)[C@H](OC(C)=O)[C@@H]1C [Rifampin],AUC,"[3]; AUCτ of coadministered drug, with DLM",55900 ng·h/mL
same,AUC,"[3]; AUCτ of coadministered drug, without DLM",48200 ng·h/mL
same,Cmax,[3]; [15],13200 ng/mL
O=C1Nc2ccc(Cl)cc2[C@@](C#CC2CC2)(C(F)(F)F)O1 [Efavirenz],Tolerability,[5],well tolerated
same,Effect of delamanid on efavirenz plasma concentrations/exposure,[6],not affected; also recorded: did not affect
same,"AUCτ of coadministered drug, without DLM","[6]; efavirenz 600 mg once daily in the evening for 10 days, without delamanid, mean ± SD",84.7 ± 37.8 (14) h·µg/ml
same,Cmax,"[6]; plasma, 600 mg, Cmax of coadministered drug, with DLM, efavirenz 600 mg once daily in the evening for 10 days, with delamanid 100 mg twice daily, mean ± SD",5810 ± 3030 ng/mL
same,Cmax,"[6]; plasma, 600 mg, Cmax of coadministered drug, without DLM, efavirenz 600 mg once daily in the evening for 10 days, without delamanid, mean ± SD",5950 ± 1670 ng/mL
C[C@]1(COc2ccc(N3CCC(Oc4ccc(OC(F)(F)F)cc4)CC3)cc2)Cn2cc([N+](=O)[O-])nc2O1 [Delamanid],Tolerability,[7],well tolerated
same,Effect of CYP2C9 genotype on delamanid PK,[2]; unpublished results,no effect
same,Tolerability,[8],well tolerated
same,AUC,"[3]; 200 mg, Delamanid AUCτ",3110 ng·h/mL
same,AUC,"[3]; 200 mg, Delamanid AUCτ, Study 1, DLM + PLC, delamanid 200 mg once daily, day 15, plasma, mean ± SD",5950 ng·h/mL
same,Cmax,"[3]; 200 mg, Delamanid Cmax",270 ± 38.9 ng/mL
same,Cmax,"[3]; 200 mg, Delamanid Cmax, Study 1, DLM + PLC, delamanid 200 mg once daily, day 15, plasma, mean ± SD",476 ± 119 ng/mL
same,Tmax,[3]; 200 mg,4.06 h
same,Tmax,"[3]; 200 mg, Study 1, DLM + PLC, delamanid 200 mg once daily, day 15, plasma, median (min-max)",4 h
same,Equivalence outcome for delamanid exposure,[1]; after lopinavir/ritonavir coadministration,Equivalence was suggested
same,Tolerability,[5],well tolerated
same,Delamanid concentrations reached steady-state by day,[9]; human,≤ 14 days
same,Delamanid AUCτ,"[9]; human, po, 100 mg","5,830 ± 1,660 ng·h/ml"
same,Delamanid Cmax,"[9]; human, po, 100 mg",734 ± 196 ng/mL
same,Effect of tenofovir coadministration on delamanid PK/systemic exposure,[9],did not affect
same,Equivalence outcome for steady-state exposure of delamanid,[9],documented
same,Tmax,[4]; 100 mg,4 h
same,AUC,[4]; 100 mg,4510 ng·h/mL
same,AUC,"[4]; 100 mg, Study 2, DLM alone, delamanid 100 mg twice daily, day 14, plasma, mean ± SD",4700 ng·h/mL
same,Cmax,"[4]; 100 mg, Delamanid Cmax",518 ± 114 ng/mL
same,Cmax,"[4]; 100 mg, Delamanid Cmax, Study 2, DLM alone, delamanid 100 mg twice daily, day 14, plasma, mean ± SD",617 ± 135 ng/mL
same,Effects on CYP activities,[10]; in vitro,neither stimulatory nor inhibitory effects
same,Metabolism by CYP enzymes,"[10]; incubation of delamanid with liver microsomes, metabolites minimally quantifiable",not metabolized by CYP enzymes
same,Effect of efavirenz coadministration on delamanid steady-state exposure/PK,[6],did not significantly affect
same,Delamanid Tmax,"[6]; DLM alone, delamanid 100 mg twice daily, day 7 evening dose, median (min-max)",4.00 (2.00–6.00) h
same,AUC,"[6]; in vivo, 100 mg, DLM + EFV (efavirenz 600 mg once daily for 10 days), delamanid 100 mg twice daily, day 17 evening dose, mean ± SD",4240 ng·h/mL
same,AUC,"[6]; in vivo, 100 mg, DLM alone, delamanid 100 mg twice daily, day 7 evening dose, mean ± SD",4380 ng·h/mL
same,Cmax,"[6]; in vivo, 100 mg, Delamanid Cmax, DLM + EFV (efavirenz 600 mg once daily for 10 days), delamanid 100 mg twice daily, day 17 evening dose",394 ng/mL
same,Cmax,"[6]; in vivo, 100 mg, Delamanid Cmax, DLM alone, delamanid 100 mg twice daily, day 7 evening dose",391 ng/mL
same,Delamanid concentrations reached steady state by day,[11],≤ 15 days
same,Lower delamanid AUCτ on coadministration with ethambutol plus Rifater,[11],47%
same,Lower delamanid Cmax on coadministration with ethambutol plus Rifater,[11],42%
same,Improvement of 2-month sputum culture conversion,"[12]; MDR-TB patients, delamanid + optimized background regimen for 2 months compared to placebo + optimized background regimen",approximately 50%
same,Favorable treatment outcomes,[12]; [17],55%
same,Mortality,[12]; [17],12.0%
same,Favorable treatment outcomes,"[12]; delamanid plus optimized background regimen for ≥6 months, P < 0.001",74.5%
same,Mortality,"[12]; delamanid plus optimized background regimen for ≥6 months, P = 0.001",2.9%
CC(C)c1nc(CN(C)C(=O)N[C@H](C(=O)N[C@@H](Cc2ccccc2)C[C@H](O)[C@H](Cc2ccccc2)NC(=O)OCc2cncs2)C(C)C)cs1 [Ritonavir],Effect of delamanid on exposure of coadministered drug,[1],not affected
same,Equivalence outcome for steady-state exposure of coadministered drug,[1],suggested
same,Cmax,[4]; [15],1270 ng/mL
